Assay results reported in patent publication US5317026A, “Acetamide derivative and application thereof” (Snow Brand Milk Products Co., Ltd., priority 1992, dated 1994).

Tests used:
[1] = test system: water immersion restrained stress induced ulcer; experiment: Water immersion restrained stress induced model; type: in vivo, Wister male rats; settings: for Suppression / Ulcer index: water immersion stress 7 hours; for Ulcer index: control 10.3 ± 4.5; for ED50: po, rat, per os, read-out: ED50 values in rat ulcer models, water immersion restrained stress induced model; for suppression of ulcers induced by the water dipping stress (in words): rats
Experimental: Experiments were carried out to investigate the pharmacological activity of Compound RT using ulcer models in Wister male rats. […] Cetraxate and Roxatidine, each suspended in 0.5% carboxymethyl cellulose (CMC), were administered to the rats using a per os probe, in an amount of 0.4 ml/100 g. 10 to 20 minutes after the administration, the animals were placed in an stress cage (manufactured by Natsume Manufacturing Co.) and dipped into water in a thermostat water bath at 21° C. to a depth of their processus xiphoideus to give a stress. After 7 hours, rats were taken out from the cage and sacrificed to cut out their stomach. 10 ml of a 2% formalin solution was charged into each stomach and the stomach was fixed in the solution for 10 minutes. After fixing, the stomach was opened along the greater curvature, and its mucosal surface was roughly washed with water. […] The total of such length (mm) in each animal was taken as an index for the ulcer production. The ulcer suppression rate (%) was determined based on the index applying the following formula. [(Ulcer index for the control)-(Ulcer index for the tested animal)]/(Ulcer index for the control)×100 (3) In order to more clearly identify the activity of Compound RT, both Roxatidine and Cetraxate hydrochloride were administered altogether.

[2] = test system: hydrochloric acid-ethanol induced ulcer; experiment: Hydrochloric acid-ethanol induced ulcer; type: in vivo, Wister male rats; settings: for Suppression / Ulcer index: 60% ethanol containing 150 mM HCl, 1 hour; for Ulcer index: control 41.0 ± 10.9; for ED50: po, rat, per os, read-out: ED50 values in rat ulcer models, hydrochloric acid-ethanol induced ulcer; for suppression of ulcers induced by hydrochloric acid-ethanol (in words): rats
Experimental: Experiments were carried out to investigate the pharmacological activity of Compound RT using ulcer models in Wister male rats. Comparative tests were performed using commercial antiulcer drugs; Cetraxate (trade mark) and Roxatidine (trade mark), each having the following chemical structure. [drawing 11] [(Ulcer index for the control)-(Ulcer index for the tested animal)]/(Ulcer index for the control)×100 Groups of Wister male rats weighing 200-230 g, each group consisting of four rats, were fasted for 24 hours and subjected to the experiment. Cetraxate and Roxatidine, each suspended in 0.5% CMC, were administered to the rats using a per os probe, in an amount of 0.4 ml/100 g. […] After 1 hour, rats were sacrificed to cut out their stomach. 10 ml of a 2% formalin solution was charged into each stomach and the stomach was fixed in the solution for 10 minutes. After fixing, the stomach was opened along the greater curvature, and its mucosal surface was roughly washed with water. […] The total of such length (mm) in each animal was taken as an index for the ulcer production. The ulcer suppression rate (%) was determined in the same manner as above. (3) In order to more clearly identify the activity of Compound RT, both Roxatidine and Cetraxate hydrochloride were administered altogether.

[3] = water immersion model, than Cetraxate and Roxatidine
[4] = hydrochloric acid-ethanol model, than Cetraxate and Roxatidine

O=C(CO)NCCCOc1cccc(CN2CCCCC2)c1 [Roxatidine, N-[3-(3-piperidinomethylphenoxy)propyl]hydroxyacetamide, reference compound]
Suppression ([1]; 25 mg/kg per os): 75.7% | Ulcer index ([1]; 25 mg/kg per os): 2.5 ± 1.6 mm | ED50 [1]: 25 mg/kg | Suppression ([2]; 40 mg/kg per os): 64.2% | Ulcer index ([2]; 40 mg/kg per os): 14.7 ± 9.9 mm | ED50 [2]: 40 mg/kg

NC[C@H]1CC[C@H](C(=O)OCC(=O)NCCCOc2cccc(CN3CCCCC3)c2)CC1 [Compound RT, 2-(trans-p-aminomethylcyclohexanecarboxy)-N-{3-[3-(1-piperidinomethyl)phenoxy]propyl}acetamide]
Suppression ([1]; 36 mg/kg per os): 93.2% | Ulcer index ([1]; 36 mg/kg per os): 0.7 ± 0.5 mm | suppression of ulcers induced by the water dipping stress (in words) [1]: effectively suppress the ulcers | effect on the suppression of the acute gastroduodenal ulcer compared with combined use of the two comparative drugs (in words) ([1]; versus combined use of the two comparative drugs): remarkably greater effect | rate of suppression compared with Cetraxate and Roxatidine (in words) [1, 3]: higher rate of suppression | ulcer index compared with Cetraxate and Roxatidine (in words) [1, 3]: lower ulcer index | Suppression ([2]; 58 mg/kg per os): 87.6% | Ulcer index ([2]; 58 mg/kg per os): 5.1 ± 5.5 mm | rate of suppression compared with Cetraxate and Roxatidine (in words) [2, 4]: higher rate of suppression | ulcer index compared with Cetraxate and Roxatidine (in words) [2, 4]: lower ulcer index | suppression of ulcers induced by hydrochloric acid-ethanol (in words) [2]: effectively suppress the ulcers | activity against the hydrochloric acid-ethanol induced ulcer compared with combined Roxatidine and Cetraxate hydrochloride (in words) ([2]; versus Roxatidine and Cetraxate hydrochloride administered altogether): almost the same as the case where both Roxatidine and Cetraxate hydrochloride were administered altogether

NC[C@H]1CC[C@H](C(=O)Oc2ccc(CCC(=O)O)cc2)CC1 [Cetraxate, reference compound]
Suppression ([1]; 25 mg/kg per os): 41.7% | Ulcer index ([1]; 25 mg/kg per os): 6.0 ± 3.3 mm | ED50 [1]: 200 mg/kg | Suppression ([2]; 40 mg/kg per os): 12.5% | Ulcer index ([2]; 40 mg/kg per os): 35.9 ± 14.7 mm | ED50 [2]: 60 mg/kg

O=C(COC(=O)[C@H]1CC[C@H](CNC(=O)OCc2ccccc2)CC1)NCCCOc1cccc(CN2CCCCC2)c1 [Compound RTP, 2-(N-carbobenzoxy-trans-p-aminomethylhexanecarboxy)-N-{3-[3-(1-piperidinomethyl)-phenoxy]propyl}acetamide]
suppression of ulcers induced by the water dipping stress (in words) [1]: effectively suppress the ulcers | suppression of ulcers induced by hydrochloric acid-ethanol (in words) [2]: effectively suppress the ulcers
